Results published in patent US11053204B2, “Pyrimidinyloxy benzene derivatives as herbicides” (FMC Corporation, priority 2015, dated 2021).

Assays:
Format in all cases: in vivo
[1] = test system: barnyardgrass (Echinochloa crus-galli); assay: Test A preemergence, visual injury rating; conditions: 0 to 100 scale (0 no effect, 100 complete control)
Procedure, shortened: (§1)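 Greenhouse pot test, loam/sand soil. Formulation: non-phytotoxic solvent mix plus surfactant. Pre: directed spray onto soil after sowing. Post: plants at 1–2 leaf, 2–10 cm. Rated visually vs untreated controls at ~10 d, 0 (no effect) to 100 (complete control).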

corn (Zea mays) [2] = assay: Test A preemergence, visual injury rating; conditions: 0 to 100 scale (0 no effect, 100 complete control)
Procedure, shortened: as §1

[3] = test system: giant foxtail (Setaria faberii); assay: Test A preemergence, visual injury rating; conditions: 0 to 100 scale (0 no effect, 100 complete control)
Procedure, shortened: as §1

[4] = test system: large (Lg) crabgrass (Digitaria sanguinalis); assay: Test A preemergence, visual injury rating; conditions: 0 to 100 scale (0 no effect, 100 complete control)
Procedure, shortened: as §1

[5] = test system: morningglory (Ipomoea spp.); assay: Test A preemergence, visual injury rating; conditions: 0 to 100 scale (0 no effect, 100 complete control)
Procedure, shortened: as §1

[6] = test system: pigweed (Amaranthus retroflexus); assay: Test A preemergence, visual injury rating; conditions: 0 to 100 scale (0 no effect, 100 complete control)
Procedure, shortened: as §1

[7] = test system: velvetleaf (Abutilon theophrasti); assay: Test A preemergence, visual injury rating; conditions: 0 to 100 scale (0 no effect, 100 complete control)
Procedure, shortened: as §1

[8] = test system: wheat (Triticum aestivum); assay: Test A preemergence, visual injury rating; conditions: 0 to 100 scale (0 no effect, 100 complete control)
Procedure, shortened: as §1

[9] = test system: barnyardgrass (Echinochloa crus-galli); assay: Test A postemergence, visual injury rating; conditions: 0 is no effect, 100 is complete control
Procedure, shortened: as §1

corn (Zea mays) [10] = assay: Test A postemergence, visual injury rating; conditions: 0 is no effect, 100 is complete control
Procedure, shortened: as §1

[11] = test system: giant foxtail (Setaria faberii); assay: Test A postemergence, visual injury rating; conditions: 0 is no effect, 100 is complete control
Procedure, shortened: as §1

[12] = test system: large (Lg) crabgrass (Digitaria sanguinalis); assay: Test A postemergence, visual injury rating; conditions: 0 is no effect, 100 is complete control
Procedure, shortened: as §1

[13] = test system: morningglory (Ipomoea spp.); assay: Test A postemergence, visual injury rating; conditions: 0 is no effect, 100 is complete control
Procedure, shortened: as §1

[14] = test system: pigweed (Amaranthus retroflexus); assay: Test A postemergence, visual injury rating; conditions: 0 is no effect, 100 is complete control
Procedure, shortened: as §1

[15] = test system: velvetleaf (Abutilon theophrasti); assay: Test A postemergence, visual injury rating; conditions: 0 is no effect, 100 is complete control
Procedure, shortened: as §1

[16] = test system: wheat (Triticum aestivum); assay: Test A postemergence, visual injury rating; conditions: 0 is no effect, 100 is complete control
Procedure, shortened: as §1

[17] = test system: barnyardgrass (Echinochloa crus-galli); assay: Test B flooded paddy test, plant response rating; conditions: 250 g ai/ha; Flood; scale of 0 to 100 where 0 is no effect and 100 is complete control; 13 to 15 days
Procedure, shortened: (§2)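 Pots were flooded to 3 cm above the soil surface at treatment, compound applied directly to the paddy water, and that depth held throughout. Plants were kept in a greenhouse for 13 to 15 days, then visually rated against untreated controls.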

[18] = test system: ducksalad (Heteranthera limosa); assay: Test B flooded paddy test, plant response rating; conditions: 250 g ai/ha; Flood; scale of 0 to 100 where 0 is no effect and 100 is complete control; 13 to 15 days
Procedure, shortened: as §2

rice (Oryza sativa) = assay: Test B flooded paddy test, plant response rating; conditions: 250 g ai/ha; Flood; scale of 0 to 100 where 0 is no effect and 100 is complete control; 13 to 15 days
Procedure, shortened: as §2

[19] = test system: sedge, umbrella (small-flower umbrella sedge, Cyperus difformis); assay: Test B flooded paddy test, plant response rating; conditions: 250 g ai/ha; Flood; scale of 0 to 100 where 0 is no effect and 100 is complete control; 13 to 15 days
Procedure, shortened: as §2

Row | SMILES | Corn plant response rating (corn (Zea mays) [2]; 500 g ai/ha) | Crabgrass, Large plant response rating ([4]; 500 g ai/ha) | Morningglory plant response rating ([5]; 500 g ai/ha) | Velvetleaf plant response rating ([7]; 500 g ai/ha) | Wheat plant response rating ([8]; 500 g ai/ha) | Barnyardgrass plant response rating ([1]; 1000 g ai/ha) | Corn plant response rating (corn (Zea mays) [2]; 1000 g ai/ha) | Foxtail, Giant plant response rating ([3]; 1000 g ai/ha) | Crabgrass, Large plant response rating ([4]; 1000 g ai/ha) | Morningglory plant response rating ([5]; 1000 g ai/ha) | Pigweed plant response rating ([6]; 1000 g ai/ha) | Velvetleaf plant response rating ([7]; 1000 g ai/ha) | Wheat plant response rating ([8]; 1000 g ai/ha) | Barnyardgrass plant response rating (0 to 100 scale) ([9]; 1000 g ai/ha) | Corn plant response rating (0 to 100 scale) (corn (Zea mays) [10]; 1000 g ai/ha) | Foxtail, Giant plant response rating (0 to 100 scale) ([11]; 1000 g ai/ha) | Crabgrass, Large plant response rating (0 to 100 scale) ([12]; 1000 g ai/ha) | Morningglory plant response rating (0 to 100 scale) ([13]; 1000 g ai/ha) | Pigweed plant response rating (0 to 100 scale) ([14]; 1000 g ai/ha) | Wheat plant response rating (0 to 100 scale) ([16]; 1000 g ai/ha) | other results
1 | O=C(NCC(F)(F)F)c1ccccc1Oc1ncc(Br)cn1 [Compound 27] | 0 | 0 | 0 | 0 | 0 |  |  |  |  |  |  |  |  |  |  |  |  |  |  |  | Barnyardgrass plant response rating ([1]; 500 g ai/ha): 0; Foxtail, Giant plant response rating ([3]; 500 g ai/ha): 0; Pigweed plant response rating ([6]; 500 g ai/ha): 0; Barnyardgrass plant response rating (0 to 100 scale) ([9]; 500 g ai/ha): 0; Corn plant response rating (0 to 100 scale) (corn (Zea mays) [10]; 500 g ai/ha): 0; Foxtail, Giant plant response rating (0 to 100 scale) ([11]; 500 g ai/ha): 0; Crabgrass, Large plant response rating (0 to 100 scale) ([12]; 500 g ai/ha): 0; Morningglory plant response rating (0 to 100 scale) ([13]; 500 g ai/ha): 0; Pigweed plant response rating (0 to 100 scale) ([14]; 500 g ai/ha): 0; Velvetleaf plant response rating (0 to 100 scale) ([15]; 500 g ai/ha): 0; Wheat plant response rating (0 to 100 scale) ([16]; 500 g ai/ha): 0
2 | O=C(NCC(F)(F)F)c1ccccc1Oc1ncc(Cl)cn1 [Compound 28, 2-[(5-chloro-2-pyrimidinyl)oxy]-N-(2,2,2-trifluoroethyl)benzamide] | 0 | 50 | 0 | 20 | 0 |  |  |  |  |  |  |  |  |  |  |  |  |  |  |  | pest or weed control at 500 g/ha ([1]; Echinochloa crus-galli, pre-emergence, 240 h, 500 g ai/ha, read-out: Barnyardgrass plant response rating): 20%; pest or weed control at 500 g/ha ([3]; Setaria faberi, pre-emergence, 240 h, 500 g ai/ha, read-out: Foxtail, Giant plant response rating): 20%; pest or weed control at 500 g/ha ([6]; Amaranthus retroflexus, pre-emergence, 240 h, 500 g ai/ha, read-out: Pigweed plant response rating): 80%; pest or weed control at 500 g/ha ([9]; Echinochloa crus-galli, post-emergence, 240 h, 500 g ai/ha, read-out: Barnyardgrass plant response rating (0 to 100 scale)): 20%; plant injury at 500 g/ha (corn (Zea mays) [10]; Zea mays, post-emergence, 240 h, 500 g ai/ha, read-out: Corn plant response rating (0 to 100 scale)): 0%; pest or weed control at 500 g/ha ([11]; Setaria faberi, post-emergence, 240 h, 500 g ai/ha, read-out: Foxtail, Giant plant response rating (0 to 100 scale)): 0%; Crabgrass, Large plant response rating (0 to 100 scale) ([12]; 500 g ai/ha): 0; Morningglory plant response rating (0 to 100 scale) ([13]; 500 g ai/ha): 0; pest or weed control at 500 g/ha ([14]; Amaranthus retroflexus, post-emergence, 240 h, 500 g ai/ha, read-out: Pigweed plant response rating (0 to 100 scale)): 20%; Velvetleaf plant response rating (0 to 100 scale) ([15]; 500 g ai/ha): 30; plant injury at 500 g/ha ([16]; Triticum aestivum, post-emergence, 240 h, 500 g ai/ha, read-out: Wheat plant response rating (0 to 100 scale)): 0%
3 | CC(C)ON=Cc1ccccc1Oc1ncc(Cl)cn1 [Compound 57] |  |  |  |  |  | 50 | 0 | 90 | 100 | 0 | 60 | 20 | 0 | 20 | 20 | 20 | 30 | 10 | 40 | 20 | Plant response rating, Barnyardgrass [17]: 0; Plant response rating, Ducksalad [18]: 0; Plant response rating, Rice (rice (Oryza sativa)): 0; Plant response rating, Sedge, Umbrella [19]: 0
4 | CC(=NOCc1ccccc1)c1ccccc1Oc1ncc(Cl)cn1 [Compound 58] |  |  |  |  |  | 90 | 20 | 100 | 100 | 0 | 50 | 20 | 20 | 40 | 30 | 60 | 80 | 30 | 100 | 20 | Velvetleaf plant response rating (0 to 100 scale) ([15]; 1000 g ai/ha): 90; Plant response rating, Barnyardgrass [17]: 0; Plant response rating, Ducksalad [18]: 0; Plant response rating, Rice (rice (Oryza sativa)): 0; Plant response rating, Sedge, Umbrella [19]: 0
5 | CC(=NOC(C)(C)C)c1ccccc1Oc1ncc(Cl)cn1 [Compound 59] |  |  |  |  |  | 20 | 0 | 30 | 80 | 0 | 30 | 0 | 0 | 0 | 20 | 10 | 10 | 0 | 30 | 30 | 
